Reference: patent US20180008620A1, “METHODS OF TREATING NEUROLOGICAL INFLAMMATORY DISORDERS” (Mayo Foundation for Medical Education and Research, priority 2015, published 2018)

How the values were obtained:
[1] = system: Neurons cultured from neonatal mice; assay: Calcium imaging of spontaneous network activity (GCaMP reporter); assay type: cell-based, mouse; details: for correlation of spontaneous activity (Pearson correlation matrix): cytokine-stimulated cultures vs vehicle control (overall uncorrelated); for correlation of spontaneous activity (Pearson correlation matrix) / absolute number of spontaneously active cells: FIG. 7; for absolute number of spontaneously active cells: cytokine-stimulated networks, vehicle control 42 neurons
Experimental: The PBS control cultures show low amplitude calcium transients that are non-synchronous. […] Calcium levels were monitored using a fluorescent reporter transduced into the neurons with […].
The Pearson correlation matrix was calculated for all of the neurons showing spontaneous activity in the culture and heat-mapped (red=highly correlated activity; blue=uncorrelated activity). In the vehicle control neurons, there is a small cluster of synchronous activity but the overall network is uncorrelated.
Neurons are cultured in glass imaging chambers under conditions that promote formation of mature synaptic networks. Cells are infected with an AAV1.Syn.GCaMP6f calcium reporter that provides fast optical tracking of intracellular calcium levels (Akerboom et al., 2012, J. Neurosci., 32:[…]; Chen et al., 2013, Nature, 499:295-300). Calcium levels are monitored in real-time using a Zeiss 5-Live confocal microscope equipped with environmental chamber. Following collection of baseline spontaneous activity levels at low magnification, inflammatory cytokine is added at the optimal cytokine concentration determined above, and cells are followed for up to 60 minutes. Images are post-processed in Image J to measure calcium transient amplitudes and frequencies within defined cells. In some experiments, an Olympus multi-photon microscope is used at high magnification to track activity in individual synapses. In addition to spontaneous activity, calcium flux elicited by addition of glutamate to cultures that have been pretreated with inflammatory cytokines for different times (0, 1, 3, 6, 12, 24, 48, 72, or 96 hr) prior to stimulation also is measured.
Neurons were cultured from neonatal mice and stimulated with TNF alpha (100 ng/mL) or IFN gamma (500 U/mL) for 24 hr. Following transduction with an AAV-encoded GCaMPf reporter, fast calcium transients were imaged in the cells. Regions of interest outlining individual neurons were defined in each frame of movies collected over several minutes, and the fluorescence intensity of each cell was graphed through time to reveal patterns in the population response.

Mouse cortical neurons [2] = assay: IFN gamma stimulation of distal axons in two-chamber device, microarray of cell body RNA; assay type: cell-based; details: IFN gamma added to axon chamber, RNA from cell body chamber 72 hours later
Experimental: Mouse cortical neurons were cultured in a two-chamber device that separates cell bodies from axons. Panel A is a schematic of the chambered device constructed in PDMS polymer. Panel B is a low-magnification image of the corresponding regions shown in Panel A stained with an antibody against neurofilament (an axon-specific protein). Higher magnification images are shown of the cell body chamber (Panel C), the axon grooves (Panel D), and the axon chamber (Panel E). DAPI staining indicates the complete absence of any cells in the axon chamber. Panel F is a schematic showing the experimental design: IFNgamma was added to the pure axons in the axon chamber; RNA was collected from the cell body chamber 72 hours later and analyzed by microarray to identify changes in gene expression.
Mouse cortical neurons were cultured in a two-chamber device that separates cell bodies from axons.
IFN gamma was added to the pure axons in the axon chamber, and RNA was collected from the cell body chamber 72 hours later. The RNA was analyzed by microarray to identify changes in gene expression.

Mouse cortical neurons [3] = assay: IFN gamma-induced transcriptional changes, Illumina BeadArray; assay type: cell-based; details: IFN gamma 500 U/mL, 24 hr, vs untreated controls; mean±95% confidence intervals
Experimental: Cortical neurons were prepared from embryonic day 15 C57BL/6 mouse fetuses, following published protocols (Sauer et al., 2013, Neurobiol. Dis., 59:194-205). In preliminary experiments, after one week in vitro, the neurons were stimulated for 24 hr with IFN gamma (500 U/mL). Quadruplicate RNA samples were collected under treated and untreated conditions, and changes in gene expression were assessed using the Illumina BeadArray system. Only genes that were detected at P<0.05 on the array were considered for further analysis. Expression levels were […] and the relative level of expression following IFN gamma stimulation was compared to untreated controls. Table 1 provides mean±95% confidence intervals; the appropriate statistical test was chosen based on normality and equal variance tests.

[4] = TNF alpha 100 ng/mL or IFN gamma 500 U/mL for 24 hr, FIGS. 8B and 8C

With NCCCC(=O)O [GABA, reference compound] the “averaged calcium responses / synaptic activity” value ([1]; 27 μM GABA added to control cultures, FIG. 8E) was “completely suppresses synaptic activity”.
With “IFN gamma: inflammatory cytokine interferon gamma used to stimulate neurons” the “averaged calcium responses / network activity” value [1, 4] was “network bursting and highly synchronized synaptic activity”, the “correlation of spontaneous activity (Pearson correlation matrix)” value [1] was “nearly complete correlation across the entire network” and the “absolute number of spontaneously active cells” value [1] was 137 neurons. For the same molecule, the “GTP cyclohydrolase I expression in neuron cell bodies” value (Mouse cortical neurons [2]) was “significantly up-regulated”, the “MOCOS expression in neuron cell bodies” value (Mouse cortical neurons [2]) was “robust up-regulation” and the “aldehyde dehydrogenase expression in neuron cell bodies” value (Mouse cortical neurons [2]) was “significantly up-regulated”. For the same molecule, the “gephyrin expression in neuron cell bodies” value (Mouse cortical neurons [2]) was “down-regulation”, the “glycine receptor beta subunit expression in neuron cell bodies” value (Mouse cortical neurons [2]) was “down-regulation” and the “xanthine dehydrogenase expression in neuron cell bodies” value (Mouse cortical neurons [2]) was “significantly up-regulated”. For the same molecule, the “GABA receptor elements expression in neuron cell bodies” value (Mouse cortical neurons [2]; not shown) was “down-regulation”, the “gephyrin-binding scaffolds expression in neuron cell bodies” value (Mouse cortical neurons [2]; not shown) was “down-regulation” and the “Fold Change, gene Actb (housekeeping)” value (Mouse cortical neurons [3]) was 1.04 ± 0.06 fold. For the same molecule, the “Fold Change, gene Aldh1a1” value (Mouse cortical neurons [3]) was 2.46 ± 0.08 fold, the “Fold Change, gene Collybistin” value (Mouse cortical neurons [3]) was 0.71 ± 0.06 fold and the “Fold Change, gene GABA A R α3” value (Mouse cortical neurons [3]) was 0.66 ± 0.10 fold. For the same molecule, the “Fold Change, gene GABA A R β1” value (Mouse cortical neurons [3]) was 0.56 ± 0.09 fold, the “Fold Change, gene GABA A R β2” value (Mouse cortical neurons [3]) was 0.80 ± 0.09 fold and the “Fold Change, gene GABA A R β3” value (Mouse cortical neurons [3]) was 0.75 ± 0.07 fold. The “Fold Change, gene GABA A R γ2” value (Mouse cortical neurons [3]) was 0.64 ± 0.05 fold, the “Fold Change, gene GABA B R2” value (Mouse cortical neurons [3]) was 0.71 ± 0.10 fold and the “Fold Change, gene Gapdh” value (Mouse cortical neurons [3]) was 1.03 ± 0.06 fold. For the same molecule, the “Fold Change, gene Gch1” value (Mouse cortical neurons [3]) was 1.59 ± 0.04 fold, the “Fold Change, gene Gephyrin” value (Mouse cortical neurons [3]) was 0.75 ± 0.05 fold and the “Fold Change, gene Glycine R β1” value (Mouse cortical neurons [3]) was 0.59 ± 0.07 fold. The “Fold Change, gene MOCOS” value (Mouse cortical neurons [3]) was 2.97 ± 0.21 fold and the “Fold Change, gene Xdh” value (Mouse cortical neurons [3]) was 1.47 ± 0.14 fold.
In the case of TNF alpha, the “averaged calcium responses / network activity” value [1, 4] is reported as “network bursting and highly synchronized synaptic activity”, the “correlation of spontaneous activity (Pearson correlation matrix)” value [1] is reported as “nearly complete correlation across the entire network” and the “absolute number of spontaneously active cells” value [1] is reported as 151 neurons. For the same molecule, the “spontaneous calcium levels in neurons” value ([1]; stimulated for 24 hr, vs PBS control with low amplitude non-synchronous transients, FIG. 6) was “large amplitude calcium signals that were highly synchronized”.
With picrotoxin [reference compound] the “averaged calcium responses / network activity” value ([1]; control cultures treated with 2.4 μM picrotoxin, FIG. 8D) was “induces network synchrony and bursting”.
